Measurements: patent publication US20250388582A1, “NOVEL BICYCLIC HETEROARYL COMPOUND AND USE THEREOF” (ILDONG PHARMACEUTICAL CO., LTD., priority 2022, published 2025)

What was measured:
[1] = molecular target: T1, human GST-PIKFYVE (Homo sapiens, UniProt Q9Y2I7); test: ADP-Glo kinase assay, enzyme inhibition activity against human PIKFYVE (Carna biosciences); assay type: biochemical; conditions: inhibitory activity at final compound concentration 10 nM; 1 hour at room temperature
T1 construct: GST; purchased Carna biosciences 11-118
Outline: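 Human GST-PIKFYVE (glutathione Sepharose-purified) was reacted with substrate and ATP for 1 h at room temperature in 50 mM MOPS, 1 mM DTT, pH 7.2, with compound at 10 nM final. ADP formed was read by ADP-Glo luminescence; inhibition was calculated against no-enzyme (100%) and no-compound (0%) controls.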

[2] = molecular target: T2, PIKFYVE (Homo sapiens, UniProt Q9Y2I7); test: NanoBRET TE Intracellular Kinase Assay, interaction of PIKFYVE and compounds in HEK293 cells; assay type: cell-based; conditions: IC50 class from BRET; HEK293 cells expressing PIKFYVE-NanoLuc; 2 hours incubation
T2 construct: host or cells: HEK293 (ATCC, CRL-1573)
Outline: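 HEK293 cells transiently expressing a PIKFYVE-NanoLuc fusion were incubated 2 h at 37 °C, 5% CO2 with compound plus NanoBRET tracer. BRET was read after adding Nano-Glo substrate, giving intracellular target engagement by tracer displacement.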

[3] = Microsomal metabolic stability assay; assay type: in vitro ADME, human or CD1 male mouse; conditions: Clint class; 1 μM compound, 0.5 mg/ml microsomes, NADPH, UDPGA, Alamethicin; species not given
Method: The microsomal metabolic stability assay was performed using pooled human or CD1 male mouse interspecies microsomes. Supplemental cofactors (NADPH, UDPGA) and microsomal membrane pore-forming factor (Alamethicin) were added to promote cytochrome P450 (CYP), UGT reactivity to the target compound. Test compounds (1 μM incubation concentration) and microsomes (0.5 mg/ml incubation concentration) were diluted in 0.1 M phosphate buffer, pH 7.4, and incubated (37° C.). The reaction was initiated by the addition of NADPH (1 mM), UDPGA (1 mM) and Alamethicin (25 μg/mg). The incubation times were 0, 5, 15, 30, and 45 minutes, and at each time point, the reaction was terminated by adding acetonitrile containing internal standard (IS)(1:3 ratio). The plate was then sealed, centrifuged (3000 rpm, 20 min, 4° C.), and the supernatant was analyzed by LC-MS/MS. Hepatic extraction ratio values were calculated from the measured in vitro clearance and Intrinsic clearance (Clint) values were calculated from the assay results, and the respective Clint values were categorized into Low, Medium, and High categories based on the reference document (ref. Prostaglandins & other lipid mediators 136 (2018): 90-95).

T2 sequence (Q9Y2I7 whole entry): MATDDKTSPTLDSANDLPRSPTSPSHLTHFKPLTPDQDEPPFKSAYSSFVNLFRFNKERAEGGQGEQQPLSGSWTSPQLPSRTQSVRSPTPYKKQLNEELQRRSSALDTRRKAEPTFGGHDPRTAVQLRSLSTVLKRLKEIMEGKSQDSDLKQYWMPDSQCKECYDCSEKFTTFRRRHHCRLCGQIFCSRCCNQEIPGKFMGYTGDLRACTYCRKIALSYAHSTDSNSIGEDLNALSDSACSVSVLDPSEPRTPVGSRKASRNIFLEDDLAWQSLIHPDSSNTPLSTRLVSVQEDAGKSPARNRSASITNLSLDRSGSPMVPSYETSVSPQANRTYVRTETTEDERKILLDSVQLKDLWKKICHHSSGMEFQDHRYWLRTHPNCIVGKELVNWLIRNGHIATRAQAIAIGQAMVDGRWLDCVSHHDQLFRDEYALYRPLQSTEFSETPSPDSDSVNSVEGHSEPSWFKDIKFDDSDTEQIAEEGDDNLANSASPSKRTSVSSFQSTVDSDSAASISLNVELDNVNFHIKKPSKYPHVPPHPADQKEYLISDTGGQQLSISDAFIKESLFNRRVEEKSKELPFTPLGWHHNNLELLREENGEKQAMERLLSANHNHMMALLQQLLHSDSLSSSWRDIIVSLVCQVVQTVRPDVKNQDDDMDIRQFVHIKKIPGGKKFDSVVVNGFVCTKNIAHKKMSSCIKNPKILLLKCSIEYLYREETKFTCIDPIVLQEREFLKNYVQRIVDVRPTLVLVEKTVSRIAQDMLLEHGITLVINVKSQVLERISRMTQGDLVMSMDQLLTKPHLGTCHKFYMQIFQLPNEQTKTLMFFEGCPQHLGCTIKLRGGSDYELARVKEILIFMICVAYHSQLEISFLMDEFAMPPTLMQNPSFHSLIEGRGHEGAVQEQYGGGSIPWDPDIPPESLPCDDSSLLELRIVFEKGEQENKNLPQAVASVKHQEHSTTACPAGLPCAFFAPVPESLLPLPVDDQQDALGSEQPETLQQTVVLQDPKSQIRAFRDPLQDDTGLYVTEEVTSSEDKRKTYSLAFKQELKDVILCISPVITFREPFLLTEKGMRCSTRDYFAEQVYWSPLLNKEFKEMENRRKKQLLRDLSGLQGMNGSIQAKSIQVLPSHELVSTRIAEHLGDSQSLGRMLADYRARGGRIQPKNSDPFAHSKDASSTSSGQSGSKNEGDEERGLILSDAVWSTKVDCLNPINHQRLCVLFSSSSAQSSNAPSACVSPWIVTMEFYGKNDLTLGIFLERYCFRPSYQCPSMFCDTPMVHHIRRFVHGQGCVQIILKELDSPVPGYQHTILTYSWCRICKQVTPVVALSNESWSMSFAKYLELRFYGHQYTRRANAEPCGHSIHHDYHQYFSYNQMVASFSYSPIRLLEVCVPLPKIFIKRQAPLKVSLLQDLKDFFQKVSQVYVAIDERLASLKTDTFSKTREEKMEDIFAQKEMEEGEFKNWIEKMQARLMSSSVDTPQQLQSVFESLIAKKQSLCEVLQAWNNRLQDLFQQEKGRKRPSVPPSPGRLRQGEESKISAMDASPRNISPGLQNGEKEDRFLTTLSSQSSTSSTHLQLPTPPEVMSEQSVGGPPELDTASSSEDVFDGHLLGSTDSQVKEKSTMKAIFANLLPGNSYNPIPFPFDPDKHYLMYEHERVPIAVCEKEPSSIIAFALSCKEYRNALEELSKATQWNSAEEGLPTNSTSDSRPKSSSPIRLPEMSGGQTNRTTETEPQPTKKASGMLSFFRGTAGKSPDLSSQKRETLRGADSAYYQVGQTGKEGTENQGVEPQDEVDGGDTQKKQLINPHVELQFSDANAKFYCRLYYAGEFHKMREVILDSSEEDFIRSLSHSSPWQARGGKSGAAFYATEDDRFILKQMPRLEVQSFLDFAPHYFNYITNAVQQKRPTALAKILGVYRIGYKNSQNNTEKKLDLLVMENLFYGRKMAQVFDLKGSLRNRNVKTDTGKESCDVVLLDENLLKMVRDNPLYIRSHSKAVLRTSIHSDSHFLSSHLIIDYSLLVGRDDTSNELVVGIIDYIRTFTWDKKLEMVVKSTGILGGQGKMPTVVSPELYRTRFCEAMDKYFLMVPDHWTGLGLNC
T1 sequence (Q9Y2I7 whole entry): as above

| ADP-Glo kinase assay (%, 10 nM) [1] [%] | IC50 [2] [nM] | Microsomal metabolic stability [3] | SMILES |
| --- | --- | --- | --- |
| 84.12 | ≤ 10 | Low (Low <8.8,) | Cc1cccc(/C=N/Nc2nc(N3CCOCC3)nc3c2ncn3-c2cccc(C)c2)c1 [Example 127, (E)-4-(6-(2-(3-methylbenzylidene)hydrazinyl)-9-(m-tolyl)-9H-purin-2-yl)morpholine] |
| 65.10 | ≤ 10 | Low (Low <8.8,) | Cc1cccc(/C=N/Nc2nc(N3CCOCC3)nc3c2ncn3-c2cccc(OC(F)(F)F)c2)c1 [Example 128, (E)-4-(6-(2-(3-methylbenzylidene)hydrazinyl)-9-(3-(trifluoromethoxy)phenyl)-9H-purin-2-yl)morpholine] |
| 89.94 | ≤ 10 | Low (Low <8.8,) | Cc1cccc(/C=N/Nc2nc(N3CCOCC3)nc3c2ncn3-c2cccc(F)c2)c1 [Example 129, (E)-4-(9-(3-fluorophenyl)-6-(2-(3-methylbenzylidene)hydrazinyl)-9H-purin-2-yl)morpholine] |
| 86.76 | ≤ 10 | Medium (Medium 8.8~48,) | C(=N\Nc1nc(N2CCOCC2)nc2c1ncn2-c1ccccc1)/c1c[nH]c2ccccc12 [Example 132, (E)-4-(6-(2-((1H-indol-3-yl)methylene)hydrazinyl)-9-phenyl-9H-purin-2-yl)morpholine] |
| 78.65 | ≤ 10 | Medium (Medium 8.8~48,) | Cc1cccc(-c2ccn(-c3nc(N4CCOCC4)nc4c3ncn4-c3ccccc3)n2)c1 [Example 136, 4-(9-phenyl-6-(3-(m-tolyl)-1H-pyrazol-1-yl)-9H-purin-2-yl)morpholine] |
| 84.50 | ≤ 10 | low | Cc1cccc(/C=N/Nc2nc(N3CCOCC3)nc3c2ncn3-c2ccnc(C(F)(F)F)c2)c1 [Example 139, (E)-4-(6-(2-(3-methylbenzylidene)hydrazinyl)-9-(2-(trifluoromethyl)pyridin-4-yl)-9H-purin-2-yl)morpholine] |
| 92.50 | ≤ 10 | Medium (Medium 8.8~48,) | Cc1cccc(/C=N/Nc2nc(N3CCOCC3)nc3c2ncn3-c2ccnc(C)c2)c1 [Example 140, (E)-4-(6-(2-(3-methylbenzylidene)hydrazinyl)-9-(2-methylpyridin-4-yl)-9H-purin-2-yl)morpholine] |
| 88.29 | ≤ 10 | medium | Cc1cccc(/C=N/Nc2nc(N3CCOCC3)nc3c2ncn3-c2cccc(C)n2)c1 [Example 141, (E)-4-(6-(2-(3-methylbenzylidene)hydrazinyl)-9-(6-methylpyridin-2-yl)-9H-purin-2-yl)morpholine] |
| 88.80 | ≤ 10 | Medium (Medium 8.8~48,) | Cc1cccc(/C=N/Nc2nc(N3CCOCC3)nc3c2ncn3-c2cc(C)n(C)n2)c1 [Example 147, (E)-4-(9-(1,5-dimethyl-1H-pyrazol-3-yl)-6-(2-(3-methylbenzylidene)hydrazinyl)-9H-purin-2-yl)morpholine] |
| 83.75 | ≤ 10 | Medium (Medium 8.8~48,) | Cc1cccc(/C=N/Nc2nc(N3CCOCC3)nc3c2ncn3-c2ccc(F)cn2)c1 [Example 149, (E)-4-(9-(5-fluoropyridin-2-yl)-6-(2-(3-methylbenzylidene)hydrazinyl)-9H-purin-2-yl)morpholine] |
| 71.16 | 10 to 20 | Medium (Medium 8.8~48,) | Cc1cccc(/C=N/Nc2nc(N3CCOCC3)nc3c2nc(C)n3CC(=O)c2ccccn2)c1 [Example 157, (E)-2-(8-methyl-6-(2-(3-methylbenzylidene)hydrazinyl)-2-morpholino-9H-purin-9-yl)-1-(pyridin-2-yl)ethan-1-one] |
| 73.72 | 10 to 20 | medium | Cc1cccc(/C=N/Nc2nc(N3CCOCC3)nc3c2nc(C)n3-c2ccccc2)c1 [Example 165, (E)-4-(8-methyl-6-(2-(3-methylbenzylidene)hydrazinyl)-9-phenyl-9H-purin-2-yl)morpholine] |
| 90.77 | ≤ 10 | medium | Cc1cccc(/C=N/n2cnc3c(Nc4ccncc4)nc(N4CCOCC4)nc32)c1 [Example 166, (E)-9-((3-methylbenzylidene)amino)-2-morpholino-N-(pyridin-4-yl)-9H-purin-6-amine] |

Continued, compound first:

| SMILES | ADP-Glo kinase assay (%, 10 nM) [1] [%] | IC50 [2] [nM] | Microsomal metabolic stability [3] |
| --- | --- | --- | --- |
| Cc1cccc(/C=N/Nc2nc(N3CCOCC3)nc3c2ncn3CC(=O)c2ccccc2C(F)(F)F)c1 [Example 43, (E)-2-(6-(2-(3-methylbenzylidene)hydrazinyl)-2-morpholino-9H-purin-9-yl)-1-(2-(trifluoromethyl)phenyl)ethan-1-one] | 80.86 | ≤ 10 | Medium (Medium 8.8~48,) |
| Cc1cccc(/C=N/Nc2nc(N3CCOCC3)nc3c2ncn3CC(=O)c2ccccc2Cl)c1 [Example 48, (E)-1-(2-chlorophenyl)-2-(6-(2-(3-methylbenzylidene)hydrazinyl)-2-morpholino-9H-purin-9-yl)ethan-1-one] | 90.25 | ≤ 10 | Low (Low <8.8,) |
| Cc1cccc(-c2ccn(-c3nc(N4CCOCC4)nc4c3ncn4CC(=O)c3ccccn3)n2)c1 [Example 64, 2-(2-morpholino-6-(3-(m-tolyl)-1H-pyrazol-1-yl)-9H-purin-9-yl)-1-(pyridin-2-yl)ethan-1-one] | 82.48 | ≤ 10 | Medium (Medium 8.8~48,) |
| Cc1cccc(/C=N/Nc2nc(N3CCOCC3)nc3c2ncn3-c2cccnc2)c1 [Example 96, (E)-4-(6-(2-(3-methylbenzylidene)hydrazinyl)-9-(pyridin-3-yl)-9H-purin-2-yl)morpholine] | 85.95 | ≤ 10 | Medium (Medium 8.8~48,) |
| COc1cc(-n2cnc3c(N/N=C/c4cccc(C)c4)nc(N4CCOCC4)nc32)ccn1 [Example 101, (E)-4-(9-(2-methoxypyridin-4-yl)-6-(2-(3-methylbenzylidene)hydrazinyl)-9H-purin-2-yl)morpholine] | 91.20 | ≤ 10 | Low (Low <8.8,) |
| Cc1cccc(/C=N/Nc2nc(N3CCOCC3)nc3c2ncn3-c2cccnc2C)c1 [Example 109, (E)-4-(6-(2-(3-methylbenzylidene)hydrazinyl)-9-(2-methylpyridin-3-yl)-9H-purin-2-yl)morpholine] | 79.21 | 10 to 20 | Medium (Medium 8.8~48,) |
| Cc1cccc(/C=N/Nc2nc(N3CCOCC3)nc3c2ncn3-c2sc(C)nc2C)c1 [Example 111, (E)-4-(9-(2,4-dimethylthiazol-5-yl)-6-(2-(3-methylbenzylidene)hydrazinyl)-9H-purin-2-yl)morpholine] | 89.77 | ≤ 10 | Medium (Medium 8.8~48,) |
| COc1ccc(-n2cnc3c(N/N=C/c4cccc(C)c4)nc(N4CCOCC4)nc32)cc1 [Example 120, (E)-4-(9-(4-methoxyphenyl)-6-(2-(3-methylbenzylidene)hydrazinyl)-9H-purin-2-yl)morpholine] | 88.76 | ≤ 10 | medium |
| COc1cccc(-n2cnc3c(N/N=C/c4cccc(C)c4)nc(N4CCOCC4)nc32)c1 [Example 121, (E)-4-(9-(3-methoxyphenyl)-6-(2-(3-methylbenzylidene)hydrazinyl)-9H-purin-2-yl)morpholine] | 92.33 | ≤ 10 | Medium (Medium 8.8~48,) |
| Cc1cccc(/C=N/Nc2nc(N3CCOCC3)nc3c2ncn3-c2cccc(Cl)c2)c1 [Example 122, (E)-4-(9-(3-chlorophenyl)-6-(2-(3-methylbenzylidene)hydrazinyl)-9H-purin-2-yl)morpholine] | 87.32 | ≤ 10 | Medium (Medium 8.8~48,) |
| Cc1cccc(/C=N/Nc2nc(N3CCOCC3)nc3c2ncn3-c2cccc(C#N)c2)c1 [Example 126, (E)-3-(6-(2-(3-methylbenzylidene)hydrazinyl)-2-morpholino-9H-purin-9-yl)benzonitrile] | 87.21 | ≤ 10 | Low (Low <8.8,) |
